In PubChem BioAssay AID2127 (Sanford-Burnham Center for Chemical Genomics, 2009):
Active and inactive are the calls of the source.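 The calls were made as follows: active = half-maximal inhibitory concentration below a set limit; inactive = the rest.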

Molecular target: E3 ubiquitin-protein ligase SIAH1 (Homo sapiens) (UniProt Q8IUQ4)
Test: Siah-1 peptide-binding antagonists, alternate label, dose response, artefact control for Siah-1 antagonist project, biochemical, fluorescence polarization, fluorescein-plectin (AID 2127)
Conditions: Siah-1/fluorescein-plectin binding

| SMILES | IC50 |
| --- | --- |
| O=C(O)c1cc(O)c2c(c1)C(=O)c1cccc(O)c1C2=O | inactive |
| CCCCn1c(NC(=O)c2ccc(Br)o2)c(C(=O)OCC)c2nc3ccccc3nc21 | > 200 µM (inactive) |
| CCCCN(Cc1cc2cc(OC)ccc2[nH]c1=O)S(=O)(=O)c1ccc(C)cc1 | > 200 µM (inactive) |
| COCCCn1c(N)c(C(=O)NCc2ccco2)c2nc3ccccc3nc21 | > 200 µM (inactive) |
| COCCOC(=O)c1sc(=S)n(CCOC)c1N | 15.3 µM |
| Cc1ccccc1NC(=O)CN1C(=O)N/C(=C\c2ccccc2OCc2ccc(C(=O)O)cc2)C1=O | > 200 µM (inactive) |
| Cc1ccc(S(=O)(=O)N2CCC(=O)N(C(COCc3cccc(C)c3)Cc3ccccc3)CC2)cc1 (stereo not given) | > 200 µM (inactive) |
| CC(C)(C)c1ccc(C(CC(=O)O)NC(=O)Cc2ccc(F)cc2)cc1 (stereo not given) | > 200 µM (inactive) |
| O=c1[nH]n(-c2ccc([N+](=O)[O-])cc2)c(=O)c2ccccc12 | > 200 µM (inactive) |
| COc1cccc(CCC(=O)N(C)C2CCCN(Cc3ccccc3F)C2)c1 (stereo not given) | > 200 µM (inactive) |
| Nc1c(C(=O)NCc2ccco2)c2nc3ccccc3nc2n1Cc1ccccc1 | > 200 µM (inactive) |
| Cc1coc2c(C)c3oc(=O)c(CCC(=O)N[C@@H](C)C(=O)N[C@@H](Cc4ccccc4)C(=O)O)c(C)c3cc12 | > 200 µM (inactive) |
| O=C(CC1Nc2cccc3cccc(c23)NC1=O)Nc1ccccc1 (stereo not given) | > 200 µM (inactive) |
| Cc1ccccc1-c1nc2c3ccccc3nc(=S)n2[nH]1 | > 200 µM (inactive) |
| CN(Cc1c(C(=O)N/N=C/c2ccc(F)cc2)nnn1-c1nonc1N)C1CCCCC1 | > 200 µM (inactive) |
| COC(=O)C1C=C2c3cccc4[nH]cc(c34)CC2N(C)C1 (stereo not given) | 6.23 µM |
| O=C(CCn1ccc2ccccc21)NC1CCCc2ccccc21 (stereo not given) | > 200 µM (inactive) |
| O=C(CSc1ccc(Br)c2cccc(Cl)c12)Nc1ccc(S(=O)(=O)Nc2nccs2)cc1 | > 200 µM (inactive) |
| O=C(NCc1ccc(Cl)cc1)c1cc(-c2cccs2)on1 | > 200 µM (inactive) |
| O=C(Nc1cccc(Oc2ccc(C(=O)O)c(C(=O)O)c2)c1)c1ccc(-c2ccccc2)cc1 | > 200 µM (inactive) |
| Cc1ccc(-n2cccn2)c([C@@H]2C[C@H]3CN(C)C(=O)[C@]34CCCN24)c1 | > 200 µM (inactive) |
| C[C@]12CCC3C(CC=C4C[C@@H](O)CC[C@@]43C)C1CCC2[C@]1(C)CCC(=O)O1 (stereo not given in full) | > 200 µM (inactive) |
| O=C(O)c1cc(Cl)c(Cl)cc1C(=O)Nc1cccc2cccnc12 | > 200 µM (inactive) |
| CCC1=Nc2cc(C(=O)O)ccc2Sc2ccccc21 | > 200 µM (inactive) |
| N#Cc1c(NC(=O)c2ccc(Br)o2)n(-c2ccccc2)c2nc3ccccc3nc12 | > 200 µM (inactive) |
| COCCCNc1c2c3c(cccc3[nH]c1=O)C(=O)c1ccccc1-2 | > 200 µM (inactive) |
| CC1=CC(C)(C)N2C(=O)C(=Nc3ccc(O)cc3)c3cccc1c32 | > 200 µM (inactive) |
| COc1ccc(CCNC(=O)c2ccc(S(=O)(=O)N(C)c3ccccc3)cc2)cc1OC | > 200 µM (inactive) |

| SMILES | IC50 |
| --- | --- |
| COC(=O)C1CC(=O)N(c2ccc(OCc3ccccc3Cl)cc2)C1 (stereo not given) | > 200 µM (inactive) |
| Cc1ccc(CNc2ccc(O)cc2)cc1 | > 200 µM (inactive) |
| C=C(C)Cn1c(N2CCN(CC)CC2)nc2c1c(=O)[nH]c(=O)n2C | > 200 µM (inactive) |
| CC(NC(=O)Nc1ccc(O)cc1)(C(F)(F)F)C(F)(F)F | > 200 µM (inactive) |
| O=C1CCCC(O)=C1N=Nc1ccc(C(=O)O)cc1 | > 200 µM (inactive) |
| N#CC1C=Cc2ccccc2N1C(=O)c1ccccc1 (stereo not given) | > 200 µM (inactive) |
| COc1cc(/C=C2/SC(=S)N(Cc3ccccc3)C2=O)cc(Cl)c1O | > 200 µM (inactive) |
| Nc1ccc(S(=O)(=O)Nc2ccc(S(N)(=O)=O)cc2)cc1 | > 200 µM (inactive) |
| CN1/C(=C\C=C\C2=[N+](C)c3ccc4ccccc4c3C2(C)C)C(C)(C)c2ccccc21 | > 200 µM (inactive) |
| COC(=O)c1ccc2c(c1)C(C)(C)C(/C=C/c1ccccc1O)=[N+]2C | > 200 µM (inactive) |
| CCC(C)N1C(=O)/C(=C/c2c(NCCCOC(C)C)nc3c(C)cccn3c2=O)SC1=S (stereo not given) | 5.66 µM |
| O=S(=O)(Nc1nc2ccccc2nc1Nc1ccc(N2CCOCC2)cc1)c1cc(Cl)ccc1Cl | > 200 µM (inactive) |
| O=C(O)c1ccc(/C=N/NC(=O)c2ccc(CN3c4cccc5cccc(c45)S3(=O)=O)cc2)cc1 | > 200 µM (inactive) |
| O=C(Nc1ccc(S(=O)(=O)N2CCOCC2)cc1)c1ccc(=O)[nH]c1 | > 200 µM (inactive) |
| CSc1ccccc1C(=O)NC(C)c1ccc(-n2ccnc2)cc1 (stereo not given) | > 200 µM (inactive) |
| CS(=O)(=O)N1CCN(c2ccc([N+](=O)[O-])c(SCc3ccco3)c2)CC1 | > 200 µM (inactive) |
| Nc1ccc(O)c2c1C(=O)c1ccccc1C2=O | 5.75 µM |
| CC12CCC(C(=O)NCc3ccc(Cl)cc3)(OC1=O)C2(C)C (stereo not given) | > 200 µM (inactive) |
| Cc1cc2cc(CNC(=O)c3ccc(S(=O)(=O)N4CCCCC4)cc3)ccc2n1C | inactive |
| Cc1ccc(C(=O)COc2ccccc2C(=O)Nc2ccccc2)cc1 | > 200 µM (inactive) |
| CC1(C)Cc2c(sc(/N=C/N3CCCCCC3)c2C#N)C(C)(C)N1 | > 200 µM (inactive) |
| COc1ccc(-c2cnnn2-c2ccc(N)cc2)cc1OC | > 200 µM (inactive) |
| CC1CCN(S(=O)(=O)c2nnc(NC(=O)c3cccc(Cl)c3)s2)CC1 | > 200 µM (inactive) |
| CCOC(=O)C1(C)C=C(Nc2ccc(O)cc2)C(=O)N1c1ccc(O)cc1 (stereo not given) | > 200 µM (inactive) |
| COc1ccc(C(C(=O)NCc2ccccc2)N(Cc2ccco2)C(=O)c2cnccn2)cc1 (stereo not given) | > 200 µM (inactive) |
| Cc1cc(C)n2ncc(C(=O)Nc3ccc4c(c3)OCO4)c2n1 | > 200 µM (inactive) |
| O=S(=O)(Nc1c(S(=O)(=O)c2ccccc2)c2nc3ccccc3nc2n1C1CCCCC1)c1ccccc1 | > 200 µM (inactive) |
